Measurements reported in paper PMC6199744, “Development of Chemical Proteomics for the Folateome and Analysis of the Kinetoplastid Folateome” (ACS Infectious Diseases, 2018).
Where two headings read alike, the source gives them in different places.

What was measured:
Assay type in all cases: binding
[1] = molecular target: T1, HeLa cell extract proteins (Homo sapiens, UniProt P20073)
T1 construct: endogenous in cells; host or cells: HeLa cell extract
T1 sequence (P20073 1-488): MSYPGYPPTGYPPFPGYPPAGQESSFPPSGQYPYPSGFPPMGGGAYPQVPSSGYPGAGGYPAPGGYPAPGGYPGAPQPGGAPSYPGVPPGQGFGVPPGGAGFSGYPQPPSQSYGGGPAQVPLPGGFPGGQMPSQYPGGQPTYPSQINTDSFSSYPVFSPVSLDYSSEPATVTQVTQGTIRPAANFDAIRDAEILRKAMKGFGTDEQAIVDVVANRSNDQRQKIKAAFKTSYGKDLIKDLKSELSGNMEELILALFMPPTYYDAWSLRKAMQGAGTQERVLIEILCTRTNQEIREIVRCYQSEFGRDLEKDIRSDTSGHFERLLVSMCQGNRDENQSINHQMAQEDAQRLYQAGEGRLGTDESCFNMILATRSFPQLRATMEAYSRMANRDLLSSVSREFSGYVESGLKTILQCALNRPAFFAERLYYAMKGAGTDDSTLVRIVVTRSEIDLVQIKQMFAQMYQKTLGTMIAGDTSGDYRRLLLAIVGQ

[2] = molecular target: T2, HeLa cell extract proteins (Homo sapiens, UniProt P32320)
T2 construct: endogenous in cells; host or cells: HeLa cell extract
T2 sequence (P32320 whole entry): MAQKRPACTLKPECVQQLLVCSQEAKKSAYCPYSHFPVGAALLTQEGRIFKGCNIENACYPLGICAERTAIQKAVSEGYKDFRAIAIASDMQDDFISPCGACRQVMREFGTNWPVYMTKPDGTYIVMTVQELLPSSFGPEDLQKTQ

[3] = molecular target: T3, HeLa cell extract proteins (Homo sapiens, UniProt P63151)
T3 construct: endogenous in cells; host or cells: HeLa cell extract
T3 sequence (P63151 1-447): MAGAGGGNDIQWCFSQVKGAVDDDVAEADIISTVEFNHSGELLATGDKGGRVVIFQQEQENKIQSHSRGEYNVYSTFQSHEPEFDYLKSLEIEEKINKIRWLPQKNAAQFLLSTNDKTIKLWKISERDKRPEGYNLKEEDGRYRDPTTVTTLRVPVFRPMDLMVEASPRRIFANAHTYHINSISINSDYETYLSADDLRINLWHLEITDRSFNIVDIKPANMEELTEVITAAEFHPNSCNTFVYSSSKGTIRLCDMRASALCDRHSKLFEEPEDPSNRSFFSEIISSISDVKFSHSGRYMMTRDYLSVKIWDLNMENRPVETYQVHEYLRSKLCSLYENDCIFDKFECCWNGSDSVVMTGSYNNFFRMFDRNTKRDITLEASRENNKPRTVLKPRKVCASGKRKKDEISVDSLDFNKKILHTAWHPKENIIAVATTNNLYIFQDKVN

[4] = molecular target: T4, HeLa cell extract proteins (Homo sapiens, UniProt Q6ZN16)
T4 construct: endogenous in cells; host or cells: HeLa cell extract
T4 sequence (Q6ZN16 1-1313): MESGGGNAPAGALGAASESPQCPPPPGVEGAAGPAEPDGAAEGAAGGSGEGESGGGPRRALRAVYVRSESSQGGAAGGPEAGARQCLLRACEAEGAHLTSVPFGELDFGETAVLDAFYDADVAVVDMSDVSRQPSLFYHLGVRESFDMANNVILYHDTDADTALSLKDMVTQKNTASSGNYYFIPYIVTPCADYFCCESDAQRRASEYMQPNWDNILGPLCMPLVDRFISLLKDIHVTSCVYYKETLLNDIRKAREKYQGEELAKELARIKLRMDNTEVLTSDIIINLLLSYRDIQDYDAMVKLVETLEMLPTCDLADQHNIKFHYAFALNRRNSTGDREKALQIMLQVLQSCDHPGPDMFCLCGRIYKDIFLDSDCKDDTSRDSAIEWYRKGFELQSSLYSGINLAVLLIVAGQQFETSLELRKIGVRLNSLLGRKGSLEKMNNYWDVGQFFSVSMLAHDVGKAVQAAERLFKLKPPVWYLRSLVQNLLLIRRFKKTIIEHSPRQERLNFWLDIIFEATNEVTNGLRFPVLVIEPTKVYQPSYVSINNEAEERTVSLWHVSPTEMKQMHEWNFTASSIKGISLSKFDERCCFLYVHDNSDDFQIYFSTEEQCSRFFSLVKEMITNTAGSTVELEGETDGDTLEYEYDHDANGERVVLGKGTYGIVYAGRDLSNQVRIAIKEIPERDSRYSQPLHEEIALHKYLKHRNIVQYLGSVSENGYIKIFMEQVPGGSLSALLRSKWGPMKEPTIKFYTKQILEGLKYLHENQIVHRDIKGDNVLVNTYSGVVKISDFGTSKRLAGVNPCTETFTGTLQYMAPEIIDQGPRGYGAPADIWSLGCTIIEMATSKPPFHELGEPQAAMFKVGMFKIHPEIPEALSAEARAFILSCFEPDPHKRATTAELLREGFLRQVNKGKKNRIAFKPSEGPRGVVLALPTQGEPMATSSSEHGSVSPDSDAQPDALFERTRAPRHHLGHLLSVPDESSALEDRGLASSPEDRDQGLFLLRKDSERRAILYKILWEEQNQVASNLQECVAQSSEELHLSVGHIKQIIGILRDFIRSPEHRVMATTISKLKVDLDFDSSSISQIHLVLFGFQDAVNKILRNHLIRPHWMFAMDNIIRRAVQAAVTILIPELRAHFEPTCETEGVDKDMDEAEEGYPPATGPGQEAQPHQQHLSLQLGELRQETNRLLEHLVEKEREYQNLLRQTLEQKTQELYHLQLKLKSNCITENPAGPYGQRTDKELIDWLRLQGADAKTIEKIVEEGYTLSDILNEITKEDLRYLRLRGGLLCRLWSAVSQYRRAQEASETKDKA

[5] = molecular target: T5, HeLa cell extract proteins (Homo sapiens, UniProt Q86X55)
T5 construct: endogenous in cells; host or cells: HeLa cell extract
T5 sequence (Q86X55 1-608): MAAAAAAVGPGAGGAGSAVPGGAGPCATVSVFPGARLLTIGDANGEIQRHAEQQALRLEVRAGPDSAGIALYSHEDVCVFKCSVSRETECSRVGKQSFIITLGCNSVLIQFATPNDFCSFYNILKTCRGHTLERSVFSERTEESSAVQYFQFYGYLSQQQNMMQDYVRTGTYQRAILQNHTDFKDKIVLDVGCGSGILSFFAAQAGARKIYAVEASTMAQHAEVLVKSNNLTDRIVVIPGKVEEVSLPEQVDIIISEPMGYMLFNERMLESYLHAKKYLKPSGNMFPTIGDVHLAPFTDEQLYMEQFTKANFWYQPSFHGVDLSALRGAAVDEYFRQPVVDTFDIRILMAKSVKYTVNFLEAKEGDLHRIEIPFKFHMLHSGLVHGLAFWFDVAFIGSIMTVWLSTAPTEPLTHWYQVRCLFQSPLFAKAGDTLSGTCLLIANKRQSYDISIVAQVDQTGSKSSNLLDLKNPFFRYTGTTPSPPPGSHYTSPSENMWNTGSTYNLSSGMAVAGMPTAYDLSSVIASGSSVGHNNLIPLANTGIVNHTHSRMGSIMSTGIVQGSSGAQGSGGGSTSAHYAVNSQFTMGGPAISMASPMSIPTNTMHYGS

| SMILES | fold changes relative to vehicle control ([1]; protein ANXA7, HeLa) | fold changes relative to vehicle control ([2]; captured protein CDA, HeLa) | fold changes relative to vehicle control ([3]; protein PPP2R2A, HeLa) | fold changes relative to vehicle control ([4]; captured protein MAP3K15, HeLa) | fold changes relative to vehicle control ([5]; HeLa, protein CARM1) | fold changes relative to vehicle control ([1]; HeLa, protein ANXA7) | fold changes relative to vehicle control ([2]; HeLa, captured protein CDA) | fold changes relative to vehicle control ([3]; HeLa, captured protein PPP2R2A) | fold changes relative to vehicle control ([4]; HeLa, protein MAP3K15) | fold changes relative to vehicle control [1] | fold changes relative to vehicle control [2] | fold changes relative to vehicle control [3] | fold changes relative to vehicle control [4] | fold changes relative to vehicle control [5] |
| --- | --- | --- | --- | --- | --- | --- | --- | --- | --- | --- | --- | --- | --- | --- |
| Nc1nc2cccc(-c3ccccc3)c2n1Cc1ccc(Cl)c(Cl)c1 [compound 3] | 0.91 | 0.94 | 0.99 | 1.01 | 0.95 |  |  |  |  |  |  |  |  |  |
| CCCCCCOc1ccc(Cc2cnc(N)nc2N)cc1 [compound 1] | 1.06 | 0.91 | 0.92 | 1.03 | 1.02 |  |  |  |  |  |  |  |  |  |
| NCCCNc1ccc(C(=O)NC(CCC(=O)O)C(=O)O)cc1 (centres unmarked) [compound 7] |  |  |  |  | 1 | 0.83 | 1.63 | 0.87 | 1.1 |  |  |  |  |  |
| CCCCCCOc1cccc(Cc2cnc(N)nc2N)c1 [compound 2] | 1.58 | 0.88 | 1.05 | 1.02 | 0.98 |  |  |  |  |  |  |  |  |  |
| NCCOCCOCC(=O)Nc1nc2ncc(CNc3ccc(C(=O)NC(CCC(=O)O)C(=O)O)cc3)nc2c(=O)[nH]1 (centres unmarked) [compound 6] |  |  |  |  | 0.89 | 1.13 | 0.89 | 0.97 | 1.03 |  |  |  |  |  |
| Nc1nc2[nH]cc(CCc3ccc(C(=O)N[C@@H](CCC(=O)O)C(=O)O)cc3)c2c(=O)[nH]1 [PTX, pemetrexed] |  |  |  |  |  |  |  |  |  | 1.02 | 1.06 | 0.97 | 1.07 | 0.9 |
| Nc1nc2c(c(=O)[nH]1)N(C=O)C(CNc1ccc(C(=O)N[C@@H](CCC(=O)O)C(=O)O)cc1)CN2 (some centres unmarked) [LEU, leucovorin] |  |  |  |  | 0.95 | 0.98 | 1.07 | 0.97 | 1 |  |  |  |  |  |
